Experimental findings from patent US20100144733A1, “Compounds, compositions and methods comprising heteroaromatic derivatives” (Institute for OneWorld Health, priority 2008, published 2010) are described below.

In the first assay the target is T1, CFTR (Homo sapiens, UniProt P13569).
T1 construct: endogenous in cells; host or cells: T84 human colonic cells (ECACC)
T1 sequence (P13569 whole entry): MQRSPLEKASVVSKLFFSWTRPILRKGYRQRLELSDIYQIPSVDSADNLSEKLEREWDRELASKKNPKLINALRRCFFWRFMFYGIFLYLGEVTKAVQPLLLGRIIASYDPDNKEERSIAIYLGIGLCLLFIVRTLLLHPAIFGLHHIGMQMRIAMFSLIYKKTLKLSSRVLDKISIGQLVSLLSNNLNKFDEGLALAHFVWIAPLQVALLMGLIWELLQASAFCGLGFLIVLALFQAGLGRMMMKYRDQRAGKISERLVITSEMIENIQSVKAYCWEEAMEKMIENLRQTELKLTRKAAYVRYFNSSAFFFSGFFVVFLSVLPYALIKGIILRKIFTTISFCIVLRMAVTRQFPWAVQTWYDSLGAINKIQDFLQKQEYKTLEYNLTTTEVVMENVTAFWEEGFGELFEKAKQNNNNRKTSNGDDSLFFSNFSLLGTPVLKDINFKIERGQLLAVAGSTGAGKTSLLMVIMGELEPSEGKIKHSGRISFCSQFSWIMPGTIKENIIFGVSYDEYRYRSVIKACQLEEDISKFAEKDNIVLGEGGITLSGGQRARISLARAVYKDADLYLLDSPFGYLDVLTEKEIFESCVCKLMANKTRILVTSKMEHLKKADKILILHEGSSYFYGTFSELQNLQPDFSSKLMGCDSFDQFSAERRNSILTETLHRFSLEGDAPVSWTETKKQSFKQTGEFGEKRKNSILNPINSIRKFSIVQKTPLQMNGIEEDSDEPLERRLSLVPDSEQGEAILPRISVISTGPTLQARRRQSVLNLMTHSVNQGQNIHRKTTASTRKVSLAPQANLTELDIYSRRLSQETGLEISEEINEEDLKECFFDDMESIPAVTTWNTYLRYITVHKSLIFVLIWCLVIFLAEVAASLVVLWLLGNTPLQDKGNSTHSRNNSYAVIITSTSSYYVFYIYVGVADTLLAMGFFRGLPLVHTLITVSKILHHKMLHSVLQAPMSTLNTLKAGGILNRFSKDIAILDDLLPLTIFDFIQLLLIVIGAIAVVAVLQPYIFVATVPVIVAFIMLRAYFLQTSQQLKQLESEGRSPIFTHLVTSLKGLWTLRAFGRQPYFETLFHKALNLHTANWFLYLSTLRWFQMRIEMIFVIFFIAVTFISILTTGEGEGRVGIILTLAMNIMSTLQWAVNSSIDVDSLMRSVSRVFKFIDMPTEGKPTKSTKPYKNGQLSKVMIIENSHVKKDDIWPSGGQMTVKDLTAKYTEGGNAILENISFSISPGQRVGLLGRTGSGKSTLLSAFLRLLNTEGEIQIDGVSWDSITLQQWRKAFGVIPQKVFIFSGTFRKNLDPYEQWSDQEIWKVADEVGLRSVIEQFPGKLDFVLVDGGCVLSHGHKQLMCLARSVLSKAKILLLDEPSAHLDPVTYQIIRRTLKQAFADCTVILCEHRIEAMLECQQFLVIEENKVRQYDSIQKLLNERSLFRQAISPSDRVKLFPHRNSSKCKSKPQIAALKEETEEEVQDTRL
In words: T84 assay (FLIPR membrane potential dye, forskolin/IBMX-stimulated CFTR channel activity). Format: cell-based. Conditions: imidazole and triazole-containing compounds (Tables 13, 14, 14′), read-out: IC50 (μM) (T84 assay). Summed up:
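Fluorescence from a membrane potential dye in T84 monolayers (HBSS with 10 mM Hepes) is followed each second for 150 s. Cells are exposed to test compound during the 45 min dye loading, then challenged with forskolin (10 μM) and IBMX (100 μM) to open CFTR. Inhibitors suppress the depolarization-driven fluorescence increase.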
In the case of `O=C(c1ncn(-c2cc(Cl)c(O)c(Cl)c2)n1)N(Cc1ccccc1)Cc1cccc(OC(F)(F)F)c1` [84i, N-benzyl-1-(3,5-dichloro-4-hydroxyphenyl)-N-(3-(trifluoromethoxy)benzyl)-1H-1,2,4-triazole-3-carboxamide], the IC50 was 6.81 µM.

On to `O=C(NCc1cccc(N2CCCCC2)c1)c1ncn(-c2cc(Cl)c(O)c(Cl)c2)n1` [38i, 1-(3,5-dichloro-4-hydroxyphenyl)-N-(3-(piperidin-1-yl)benzyl)-1H-1,2,4-triazole-3-carboxamide], for which the IC50 was determined as 5.61 µM.

With `O=C(c1ncn(-c2cc(Cl)c(O)c(Cl)c2)n1)N(Cc1ccccc1)Cc1cccc(C(F)(F)F)c1` [85i, N-benzyl-1-(3,5-dichloro-4-hydroxyphenyl)-N-(3-(trifluoromethyl)benzyl)-1H-1,2,4-triazole-3-carboxamide], the half-maximal inhibitory concentration (IC50) stood at 3.16 µM. Take `COCCOCCOCCOCCN(Cc1ccc(C(C)(C)C)cc1)C(=O)c1ncn(-c2cc(Cl)c(O)c(Cl)c2)n1` [120i, N-(4-tert-butylbenzyl)-1-(3,5-dichloro-4-hydroxyphenyl)-N-(2,5,8,11-tetraoxatridecan-13-yl)-1H-1,2,4-triazole-3-carboxamide]: the IC50 worked out at 5.9 µM.

Staying with this assay, now noted: isoxazole-containing compounds (Table 10, 10′, 11, 11′), read-out: IC50.
As to `O=C(c1cc(-c2cc(Br)c(O)c(Br)c2)on1)N1CCN(c2ccc(Cl)c(Cl)c2)CC1` [10g, (5-(3,5-dibromo-4-hydroxyphenyl)isoxazol-3-yl)(4-(3,4-dichlorophenyl)piperazin-1-yl)methanone], the IC50 stood at 7.4 µM.

The assay is the same for the next values; noted with them: oxadiazole-containing compounds (a series), average of at least 2 runs unless annotated n = 1, read-out: IC50.
As for `O=C(c1nc(-c2cc(Cl)c(O)c(Cl)c2)no1)N(Cc1cccc(C(F)(F)F)c1)Cc1cccc(C(F)(F)F)c1` [101a, 3-(3,5-dichloro-4-hydroxyphenyl)-N,N-bis(3-(trifluoromethyl)benzyl)-1,2,4-oxadiazole-5-carboxamide], the 50% inhibitory concentration (IC50) came out at 6.71 µM. Regarding `O=C(Nc1cccc(OC(F)(F)F)c1)c1nc(-c2cc(Br)c(O)c(Br)c2)no1` [24a, 3-(3,5-Dibromo-4-hydroxyphenyl)-N-(3-(trifluoromethoxy)phenyl)-1,2,4-oxadiazole-5-carboxamide], the IC50 stood at 13.1 µM. As for `CC(C)(C)C(=O)CN(Cc1ccc(F)c(F)c1)C(=O)c1nc(-c2cc(Cl)c(O)c(Cl)c2)no1` [152a, 3-(3,5-dichloro-4-hydroxyphenyl)-N-(3,4-difluorobenzyl)-N-(3,3-dimethyl-2-oxobutyl)-1,2,4-oxadiazole-5-carboxamide], the half-maximal inhibitory concentration (IC50) is 8.88 µM. As for `CC(C)(C)ONC(=O)COc1c(Br)cc(-c2noc(C(=O)N3CCC(Cc4ccccc4)CC3)n2)cc1Br` [205a, 2-(4-(5-(4-benzylpiperidine-1-carbonyl)-1,2,4-oxadiazol-3-yl)-2,6-dibromophenoxy)-N-tert-butoxyacetamide], the IC50 turned out to be 23.1 µM. As for `O=C(NCc1cc(F)cc(F)c1)c1nc(-c2cc(Cl)c(O)c(Cl)c2)no1` [137a, 3-(3,5-dichloro-4-hydroxyphenyl)-N-(3,5-difluorobenzyl)-1,2,4-oxadiazole-5-carboxamide], the IC50 was found to be 24.4 µM. Regarding `O=C(NCc1ccc(Oc2ccc(Cl)c(C(F)(F)F)c2)cc1)c1nc(-c2cc(Cl)c(O)c(Cl)c2)no1` [202a, N-(4-(4-chloro-3-(trifluoromethyl)phenoxy)benzyl)-3-(3,5-dichloro-4-hydroxyphenyl)-1,2,4-oxadiazole-5-carboxamide], the IC50 was 23.3 µM. As to `Cc1cncc(Oc2cccc(CN(C)C(=O)c3nc(-c4cc(Cl)c(O)c(Cl)c4)no3)c2)n1` [172a, 3-(3,5-dichloro-4-hydroxyphenyl)-N-methyl-N-(3-(6-methylpyrazin-2-yloxy)benzyl)-1,2,4-oxadiazole-5-carboxamide], the IC50 stood at 4.41 µM. On to `O=C(NCc1ccc(Oc2cc(Cl)cc(Cl)c2)cc1)c1nc(-c2cc(Cl)c(O)c(Cl)c2)no1` [196a, 3-(3,5-dichloro-4-hydroxyphenyl)-N-(4-(3,5-dichlorophenoxy)benzyl)-1,2,4-oxadiazole-5-carboxamide], for which the half-inhibitory concentration (IC50) came out at 16.2 µM. Regarding `O=C(c1noc(-c2cc(Br)c(O)c(Br)c2)n1)N1CCC(Cc2ccccc2)CC1` [66a, (4-benzylpiperidin-1-yl)(5-(3,5-dibromo-4-hydroxyphenyl)-1,2,4-oxadiazol-3-yl)methanone], the IC50 was determined as 11.7 µM. Take `O=C(NCc1cccc(C(F)(F)F)c1)c1noc(-c2cc(Cl)c(O)c(Cl)c2)n1` [74a, 5-(3,5-dichloro-4-hydroxyphenyl)-N-(3-(trifluoromethyl)benzyl)-1,2,4-oxadiazole-3-carboxamide]: the concentration for half-maximal inhibition (IC50) came to 2.6 µM. As to `O=C(NCc1ccc(Oc2ccccc2)cc1)c1noc(-c2cc(Cl)c(O)c(Cl)c2)n1` [79a, 5-(3,5-dichloro-4-hydroxyphenyl)-N-(4-phenoxybenzyl)-1,2,4-oxadiazole-3-carboxamide], the 50% inhibitory concentration (IC50) was found to be 17.5 µM. As to `O=C(O)COc1c(Cl)cc(-c2nc(C(=O)NCc3ccc(Oc4ccccc4)cc3)no2)cc1Cl` [107a, 2-(2,6-dichloro-4-(3-(4-phenoxybenzylcarbamoyl)-1,2,4-oxadiazol-5-yl)phenoxy)acetic acid], the IC50 was found to be 19.2 µM.

In the case of `CC(C)(C)C(=O)N1CCN(C(=O)c2nc(-c3cc(Br)c(O)c(Br)c3)no2)CC1` [93a, 1-(4-(3-(3,5-dibromo-4-hydroxyphenyl)-1,2,4-oxadiazole-5-carbonyl)piperazin-1-yl)-2,2-dimethylpropan-1-one], the half-maximal inhibitory concentration (IC50) came to 5.8 µM. Turning to `O=C(NCc1ccc(Oc2ccccc2)cc1)c1nc(-c2cc(Cl)c(O)c(Cl)c2)no1` [7a, 3-(3,5-dichloro-4-hydroxyphenyl)-N-(4-phenoxybenzyl)-1,2,4-oxadiazole-5-carboxamide], the IC50 was 5.22 µM. With `CN(Cc1ccc(C(F)(F)F)cc1)C(=O)c1noc(-c2cc(Cl)c(O)c(Cl)c2)n1` [87a, 5-(3,5-dichloro-4-hydroxyphenyl)-N-methyl-N-(4-(trifluoromethyl)benzyl)-1,2,4-oxadiazole-3-carboxamide], the 50% inhibitory concentration (IC50) worked out at 3.42 µM. For `O=C(c1nc(-c2cc(Br)c(O)c(Br)c2)no1)N1CCC(Cc2ccccc2)CC1` [18a, (4-benzylpiperidin-1-yl)(3-(3,5-dibromo-4-hydroxyphenyl)-1,2,4-oxadiazol-5-yl)methanone], the 50% inhibitory concentration (IC50) was determined as 12.3 µM.

Turning to `O=C(NC(c1ccccc1)c1ccccc1)c1nc(-c2cc(Cl)c(O)c(Cl)c2)no1` [15a, N-benzhydryl-3-(3,5-dichloro-4-hydroxyphenyl)-1,2,4-oxadiazole-5-carboxamide], the IC50 is 9 µM.

As to `C=CCN(Cc1ccc(F)c(F)c1)C(=O)c1nc(-c2cc(Cl)c(O)c(Cl)c2)no1` [170a, N-allyl-3-(3,5-dichloro-4-hydroxyphenyl)-N-(3,4-difluorobenzyl)-1,2,4-oxadiazole-5-carboxamide], the IC50 worked out at 3.62 µM. In the case of `O=C(NCc1ccccc1C(F)(F)F)c1nc(-c2cc(Br)c(O)c(Br)c2)no1` [36a, 3-(3,5-dibromo-4-hydroxyphenyl)-N-(2-(trifluoromethyl)benzyl)-1,2,4-oxadiazole-5-carboxamide], the IC50 amounted to 21.4 µM.

Regarding `CN(Cc1cccc(OC(F)(F)F)c1)C(=O)c1nc(-c2cc(Br)c(O)c(Br)c2)no1` [38a, 3-(3,5-dibromo-4-hydroxyphenyl)-N-methyl-N-(3-(trifluoromethoxy)benzyl)-1,2,4-oxadiazole-5-carboxamide], the IC50 is 2.52 µM.

The same assay, now with this note: thiadiazole-containing compounds (Table 12), read-out: IC50.
In the case of `Oc1c(Cl)cc(-c2nnc(Cc3cccc(Cl)c3)s2)cc1Cl` [1h, 2,6-dichloro-4-(5-(3-chlorobenzyl)-1,3,4-thiadiazol-2-yl)phenol], the IC50 amounted to 5.65 µM.

By IC50 is commonly meant the concentration at which inhibition is half-maximal.
